Experimental data reported in the supplement of paper PMC12350171.

Key:
[1] = test system: Fusobacterium nucleatum subsp. Nucleatum; experiment: IC25 growth inhibition; higher = less potent
Procedure, shortened: (§1)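 Monocultures grown overnight in mGAM were added to pre-reduced plates holding twofold drug dilutions, giving a starting OD578 of 0.01 and 1% DMSO (or water). Growth was followed anaerobically by hourly OD578 readings in a plate reader, with at least three biological replicates. The median growth-curve AUC per concentration was forced to be monotonic. IC25 was the lowest concentration with median AUC below 0.75, reported as a tested interval.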

Escherichia coli ED1a = experiment: IC25 growth inhibition; higher = less potent
Procedure, shortened: as §1

Clostridium perfringens = experiment: IC25 growth inhibition; higher = less potent
Procedure, shortened: as §1

Vibrio cholerae = experiment: IC25 growth inhibition; higher = less potent
Procedure, shortened: as §1

Ruminococcus gnavus = experiment: IC25 growth inhibition; higher = less potent
Procedure, shortened: as §1

[2] = test system: Bacteroides thetaiotaomicron; experiment: IC25 growth inhibition; higher = less potent
Procedure, shortened: as §1

Clostridium ramosum = experiment: IC25 growth inhibition; higher = less potent
Procedure, shortened: as §1

Shigella flexneri = experiment: IC25 growth inhibition; higher = less potent
Procedure, shortened: as §1

Eubacterium rectale = experiment: IC25 growth inhibition; higher = less potent
Procedure, shortened: as §1

Parabacteroides merdae = experiment: IC25 growth inhibition; higher = less potent
Procedure, shortened: as §1

[3] = test system: Streptococcus parasanguinis; experiment: IC25 growth inhibition; higher = less potent
Procedure, shortened: as §1

Coprococcus comes = experiment: IC25 growth inhibition; higher = less potent
Procedure, shortened: as §1

Bacteroides fragilis NT = experiment: IC25 growth inhibition; higher = less potent
Procedure, shortened: as §1

Collinsella aerofaciens = experiment: IC25 growth inhibition; higher = less potent
Procedure, shortened: as §1

Bacteroides uniformis = experiment: IC25 growth inhibition; higher = less potent
Procedure, shortened: as §1

[4] = test system: Salmonella enterica typhimurium; experiment: IC25 growth inhibition; higher = less potent
Procedure, shortened: as §1

[5] = test system: Yersinia pseudotuberculosis; experiment: IC25 growth inhibition; higher = less potent
Procedure, shortened: as §1

Bacteroides vulgatus = experiment: IC25 growth inhibition; higher = less potent
Procedure, shortened: as §1

Streptococcus salivarius = experiment: IC25 growth inhibition; higher = less potent
Procedure, shortened: as §1

Clostridium bolteae = experiment: IC25 growth inhibition; higher = less potent
Procedure, shortened: as §1

Dorea formicigenerans = experiment: IC25 growth inhibition; higher = less potent
Procedure, shortened: as §1

[6] = test system: Clostridium saccharolyticum; experiment: IC25 growth inhibition; higher = less potent
Procedure, shortened: as §1

Roseburia intestinalis = experiment: IC25 growth inhibition; higher = less potent
Procedure, shortened: as §1

[7] = test system: Yersinia enterocolitica WA-314; experiment: IC25 growth inhibition; higher = less potent
Procedure, shortened: as §1

[8] = test system: Com21 synthetic gut community; experiment: community biomass OD578 after 24 h drug treatment relative to untreated (fraction of untreated control); higher = more community growth; conditions: community: Com21 (Com20 + E. coli ED1a)
Description: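 Com21 (Com20 plus E. coli ED1a) was treated with drug for 24 h under anaerobic conditions in mGAM. Community OD578 was then measured and normalised to untreated Com21; mean of 3 biological replicates.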

[9] = drug pretreatment concentration 10 µM
[10] = drug pretreatment concentration 20 µM
[11] = drug pretreatment concentration 40 µM
[12] = drug pretreatment concentration 80 µM
[13] = drug pretreatment concentration 160 µM
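Throughout, for IC25 growth inhibition: lowest concentration where monotonic median growth AUC falls below 0.75 of drug-free control.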

SMILES | IC25 growth inhibition [1] | IC25 growth inhibition (Escherichia coli ED1a) | IC25 growth inhibition (Clostridium perfringens) | IC25 growth inhibition (Vibrio cholerae) | IC25 growth inhibition (Ruminococcus gnavus) | IC25 growth inhibition [2] | IC25 growth inhibition (Clostridium ramosum) | IC25 growth inhibition (Shigella flexneri) | IC25 growth inhibition (Eubacterium rectale) | IC25 growth inhibition (Parabacteroides merdae) | IC25 growth inhibition [3] | IC25 growth inhibition (Coprococcus comes) | IC25 growth inhibition (Bacteroides fragilis NT) | IC25 growth inhibition (Collinsella aerofaciens) | IC25 growth inhibition (Bacteroides uniformis) | IC25 growth inhibition [4] | IC25 growth inhibition [5] | IC25 growth inhibition (Bacteroides vulgatus) | IC25 growth inhibition (Streptococcus salivarius) | IC25 growth inhibition (Clostridium bolteae) | IC25 growth inhibition (Dorea formicigenerans) | IC25 growth inhibition [6] | IC25 growth inhibition (Roseburia intestinalis) | IC25 growth inhibition [7] | community biomass OD578 [8, 9] | community biomass OD578 [8, 10] | community biomass OD578 [8, 11] | community biomass OD578 [8, 12] | community biomass OD578 [8, 13] | community biomass OD578 ([8]; drug pretreatment concentration 5 µM)
C[C@H]1c2cccc(O)c2C(=O)C2=C(O)[C@]3(O)C(=O)C(C(N)=O)=C(O)[C@@H](N(C)C)[C@@H]3[C@@H](O)[C@@H]21 [Doxycycline] | < 1.25 µM | < 1.25 µM | < 1.25 µM | < 1.25 µM | ≤ 40 µM | < 1.25 µM | < 1.25 µM | ≤ 40 µM | < 1.25 µM | ≤ 40 µM | < 1.25 µM | ≤ 40 µM | < 1.25 µM | < 1.25 µM | < 1.25 µM | > 160 µM | ≤ 40 µM | < 1.25 µM | ≤ 40 µM | < 1.25 µM | < 1.25 µM | < 1.25 µM | < 1.25 µM | ≤ 40 µM | 0.062 | 0.06 | 0.064 | 0.065 | 0.064 | 
CC[C@H]1OC(=O)[C@H](C)[C@@H](O[C@H]2C[C@@](C)(OC)[C@@H](O)[C@H](C)O2)[C@H](C)[C@@H](O[C@@H]2O[C@H](C)C[C@H](N(C)C)[C@H]2O)[C@](C)(O)C[C@@H](C)C(=O)[C@H](C)[C@@H](O)[C@]1(C)O [Erythromycin] | ≤ 5 µM | ≤ 20 µM | < 1.25 µM | < 1.25 µM | < 1.25 µM | < 1.25 µM | < 1.25 µM | ≤ 10 µM | < 1.25 µM | < 1.25 µM | < 1.25 µM | < 1.25 µM | < 1.25 µM | < 1.25 µM | < 1.25 µM | ≤ 40 µM | ≤ 40 µM | < 1.25 µM | < 1.25 µM | ≤ 2.5 µM | < 1.25 µM | < 1.25 µM | < 1.25 µM | ≤ 20 µM | 0.734 | 0.696 | 0.608 | 0.496 | 0.409 | 
C#C[C@]1(O)CC[C@H]2[C@@H]3CCc4cc(O)ccc4[C@H]3CC[C@@]21C [Ethinylestradiol] | > 80 µM | > 80 µM | > 80 µM | ≤ 40 µM | > 80 µM | > 80 µM | > 80 µM | > 80 µM | > 80 µM | > 80 µM | > 80 µM | > 80 µM | > 80 µM | > 80 µM | > 80 µM | > 80 µM | > 80 µM | > 80 µM | > 80 µM | > 80 µM | > 80 µM | > 80 µM | > 80 µM | > 80 µM | 0.986 | 0.99 | 0.976 | 0.779 |  | 1.01
CCN(CC)C(C)CN1c2ccccc2Sc2ccccc21 (stereo unspecified) [Ethopropazine] | > 80 µM | > 160 µM | > 80 µM | > 80 µM | > 80 µM | ≤ 2.5 µM | > 80 µM | > 80 µM | > 80 µM | < 1.25 µM | > 80 µM | > 80 µM | ≤ 10 µM | > 80 µM | ≤ 10 µM | > 80 µM | > 80 µM | < 1.25 µM | > 80 µM | > 80 µM | > 80 µM | > 80 µM | ≤ 80 µM | > 80 µM | 0.981 | 0.995 | 0.997 | 0.992 | 0.97 | 
